Data reported in patent publication US20100184674A1, “PROADRENOMEDULLIN ALONE OR IN COMBINATION WITH BIG GASTRIN I AS A THERAPEUTIC AGENT” (priority 2007, published 2010).
Where no end group is shown, it is not given here. [ ]: non-standard residue; d: D form. pGlu = O=C1CC[C@@H](C(=O)O)N1

Tested on: drug-resistant Mycobacterium tuberculosis
Type: cell-based
Conditions: 10 micrograms per ml; seven days; strain resistant against PAS, streptomycin and isoniazid

Substance	inhibition of the growth of Mycobacterium tuberculosis [%]
Ala-Arg-Leu-Asp-Val-Ala-Ser-Glu-Phe-Arg-Lys-Lys-Trp-Asn-Lys-Trp-Ala-Leu-Ser-Arg-NH2 (ARLDVASEFRKKWNKWALSR-NH2) [Peptide 1]	100
Pyr-Leu-Gly-Pro-Gln-Gly-Pro-Pro-His-Leu-Val-Ala-Asp-Pro-Ser-Lys-Lys-Gln-Gly-Pro-Trp-Leu-Glu-Glu-Glu-Glu-Glu-Ala-Tyr-Gly-Trp-Met-Asp-Phe-NH2 ([pGlu]LGPQGPPHLVADPSKKQGPWLEEEEEAYGWMDF-NH2; SMILES CSCC[C@H](NC(=O)[C@H](Cc1c[nH]c2ccccc12)NC(=O)CNC(=O)[C@H](Cc1ccc(O)cc1)NC(=O)[C@H](C)NC(=O)[C@H](CCC(=O)O)NC(=O)[C@H](CCC(=O)O)NC(=O)[C@H](CCC(=O)O)NC(=O)[C@H](CCC(=O)O)NC(=O)[C@H](CCC(=O)O)NC(=O)[C@H](CC(C)C)NC(=O)[C@H](Cc1c[nH]c2ccccc12)NC(=O)[C@@H]1CCCN1C(=O)CNC(=O)[C@H](CCC(N)=O)NC(=O)[C@H](CCCCN)NC(=O)[C@H](CCCCN)NC(=O)[C@H](CO)NC(=O)[C@@H]1CCCN1C(=O)[C@H](CC(=O)O)NC(=O)[C@H](C)NC(=O)[C@@H](NC(=O)[C@H](CC(C)C)NC(=O)[C@H](Cc1c[nH]cn1)NC(=O)[C@@H]1CCCN1C(=O)[C@@H]1CCCN1C(=O)CNC(=O)[C@H](CCC(N)=O)NC(=O)[C@@H]1CCCN1C(=O)CNC(=O)[C@H](CC(C)C)NC(=O)[C@@H]1CCC(=O)N1)C(C)C)C(=O)N[C@@H](CC(=O)O)C(=O)N[C@@H](Cc1ccccc1)C(N)=O) [Peptide 2]	100
